In brackets after ≈: the same amount, converted by molar mass. Read-outs that look alike come from different tables or passages of the source.
Tests used:
C. parapsilosis [1] = conditions: ref Pfaller et al.; cited from earlier work
Method: Table 4 The area under the concentration-time curve (AUC)/minimal inhibitory concentration (MIC) target probability of target attainment (PTA) values(%) against Candida albicans, Candida glabrata, and Candida parapsilosis for caspofungin in pediatric patients. | column: AUC/MIC target PTA(%) / C. parapsilosis MIC90 = 0.5 mg/L / Fungistatic target || Two simulation procedures were performed to calculate the probability of PK/PD target attainment with different dosing regimens based on the final model. One of the procedure is fixed MIC value of Candida app. to simulated the clinical efficacy of the different drug regimens of caspofungin in infants, children (age 2–11 years), and adolescents (age 12–14 years). According to the literature report, the MIC90 value for C. albicans, C. glabrata, and C. parapsilosis are 0.03, 0.06, and 0.5 mg/L ([Pfaller et al.]). Another simulation procedure is not fixed MIC values. The loading doses of caspofung ...

C. glabrata [2] = conditions: ref Pfaller et al.; cited from earlier work
Method: Table 4 The area under the concentration-time curve (AUC)/minimal inhibitory concentration (MIC) target probability of target attainment (PTA) values(%) against Candida albicans, Candida glabrata, and Candida parapsilosis for caspofungin in pediatric patients. | column: AUC/MIC target PTA(%) / C. glabrata MIC90 = 0.06 mg/L / Fungistatic target || Two simulation procedures were performed to calculate the probability of PK/PD target attainment with different dosing regimens based on the final model. One of the procedure is fixed MIC value of Candida app. to simulated the clinical efficacy of the different drug regimens of caspofungin in infants, children (age 2–11 years), and adolescents (age 12–14 years). According to the literature report, the MIC90 value for C. albicans, C. glabrata, and C. parapsilosis are 0.03, 0.06, and 0.5 mg/L ([Pfaller et al.]). Another simulation procedure is not fixed MIC values. The loading doses of caspofung ...

C. albicans [3] = conditions: ref Pfaller et al.; cited from earlier work
Method: Table 4 The area under the concentration-time curve (AUC)/minimal inhibitory concentration (MIC) target probability of target attainment (PTA) values(%) against Candida albicans, Candida glabrata, and Candida parapsilosis for caspofungin in pediatric patients. | column: AUC/MIC target PTA(%) / C. albicans MIC90 = 0.04 mg/L / Fungistatic target || Two simulation procedures were performed to calculate the probability of PK/PD target attainment with different dosing regimens based on the final model. One of the procedure is fixed MIC value of Candida app. to simulated the clinical efficacy of the different drug regimens of caspofungin in infants, children (age 2–11 years), and adolescents (age 12–14 years). According to the literature report, the MIC90 value for C. albicans, C. glabrata, and C. parapsilosis are 0.03, 0.06, and 0.5 mg/L ([Pfaller et al.]). Another simulation procedure is not fixed MIC values. The loading doses of caspofung ...

[4] = median, children 2–12 years old, two-compartment model; ref Yang et al., 2019; cited from earlier work
Excerpt: Others reported weight and disease state had significant effects on caspofungin PKs in pediatric patients ([Li et al., 2011]). Xin-Mei Yang studied the PK of caspofungin in children (2–12 years old).

C. parapsilosis [5] = assay: MIC of the isolate cultured from bronchoalveolar lavage fluid; type: cell-based, Candida parapsilosis; conditions: isolate of one failed prophylaxis case
Method: In this study, 48 patients received caspofungin (loading dose of 70 mg/m^2 followed by 50 mg/m^2) as prophylaxis for fungal infections for a period of HSCT. The diagnosis of IFI mainly relied on a chest computed tomography (CT), clinical symptoms, blood culture, G test, and GM test. Patients were considered a probable IFI case with a chest CT scan positive for a halo or air crescent sign and large mass flocculent shadow. Routine blood culture, as long as the patients who receive bronchoscopy are all sent to receive bronchoalveolar lavage fluid culture meanwhile high throughput sequencing to find the pathogenic bacteria. […] The culture of bronchoalveolar lavage fluid was negative in three cases for consecutive two times and positive for C. parapsilosis in one case that was identified as C. parapsilosis infection (MIC = 0.5 mg/L). The median ± standard deviation of AUC24 in successful and failed cases group are 394.93 ± 91.14 mg·h/L and 352.08 ± 24.43 mg·h/L (t = 0.929, P = 0.358) at the loading dose, 300.37 ± 88.3 mg·h/L and 247.71 ± 33.67 mg·h/L (t = 1.175, P = 0.246) at the maintenance dose respectively. […] They were much lower than fungicidal target AUC24/MIC ratios ⩾ 1185 for C. parapsilosis. At the maintenance dose AUC24/MIC ratios were lower than the fungistatic target AUC24/MIC ratios ⩾ 559 for C. parapsilosis, which might lead to the failure of preventive treatment.

[6] = tested on: invasive fungal infections (IFI); assay: Clinical outcome of caspofungin prophylaxis for fungal infections during HSCT; type: in vivo, human
Method: (§1) Caspofungin has been approved for use in patients with IFI that requiring prevention treatment, especially for patients undergoing allo-HSCT. In total, 48 patients, received allo-HSCT, fulfilled the enrollment criteria and provided informed in the model building group between July 2017 and March 2019. They received caspofungin as a 1-h intravenous infusion on the basis of body surface area (BSA) with 50 mg/m^2 maintenance dose daily followed by 70 mg/m^2 loading dose on day 1.
In this study, 48 patients received caspofungin (loading dose of 70 mg/m^2 followed by 50 mg/m^2) as prophylaxis for fungal infections for a period of HSCT. The diagnosis of IFI mainly relied on a chest computed tomography (CT), clinical symptoms, blood culture, G test, and GM test. Patients were considered a probable IFI case with a chest CT scan positive for a halo or air crescent sign and large mass flocculent shadow. Routine blood culture, as long as the patients who receive bronchoscopy are all sent to receive bronchoalveolar lavage fluid culture meanwhile high throughput sequencing to find the pathogenic bacteria. […] The culture of bronchoalveolar lavage fluid was negative in three cases for consecutive two times and positive for C. parapsilosis in one case that was identified as C. parapsilosis infection (MIC = 0.5 mg/L). […]

C. glabrata [7] = conditions: ref Andes et al., 2010; cited from earlier work
Excerpt: (§2) The likely success of treatment identified with the probability of target attainment (PTA) by comparing the pharmacodynamic exposure against an minimal inhibitory concentration (MIC) distribution. […] A PK/PD target was defined as the ratio AUC24/MIC for candidiasis. […] Fungistatic ...

C. albicans [8] = conditions: ref Andes et al., 2010; cited from earlier work
Excerpt: as §2

clinical = type: in vivo, human; conditions: for AUC(0-t) / clearance: human, in vivo, iv; for AUC(0-t): median ± standard deviation, read-out: AUC24
Method: A prospective, open-label pharmacokinetic study of caspofungin was performed at Wuhan Children's Hospital, Hubei Province. All designed procedures conformed to the legal requirements and the ethics committee of Wuhan Children's Hospital approved this study.
as §1
We performed an opportunistic sampling strategy when a steady-state caspofungin concentration had been achieved. Plasma was placed on ice and centrifuged (15,000 rpm for 5 min at +4°C) immediately and then stored at −80°C prior to analysis. Then we recorded the dosing and infusion time as well as sampling time prospectively.
Caspofungin concentrations were detected by a high-performance liquid chromatography method (Agilent Technologies Inc., 1260 infinity) with ultraviolet (UV) performed on detection by fluorescence. The excitation wavelength was 220 nm, the column temperature was 30 °C, and the pump flow rate was 0.8 ml/min. A solution of 42% acetonitrile was used as the mobile phase. We employed 0.5 ml of serum loaded on solid-phase extraction column (Agela Technologies, Cleanert ODS C18, 200 mg/3 ml) and then eluted with 60% acetonitrile. An Innoval C18 column (Agela Technologies, 10 μm, 4.6 × 250 mm) was used for separation. The calibration curve ranged from 0.6 to 20 mg/L. The inter- and intra-assay coefficients of variation of controls were all less than 5%. The lower limit of quantification (LLOQ) was 0.6 mg/L.
The PopPK study was performed by applying the non-linear mixed-effect modeling program Phoenix NLME (Version 8.1, Pharsight Corporation) and R program (Version 3.5.1, http://www.r-project.org/).
We tried to describe the pharmacokinetic process of caspofungin in vivo by using the one- or two-compartment models. The scale model and exponential model were adopted for intra-individual variation and inter-individual variation respectively. A forward and backward selection process was used for covariate analysis. The effects of demographic characteristics including age, body weight (WT), height, BSA, biological parameters including uric acid (UA), serum cystatin C (Cys-C), estimated glomerular filtration rate (eGFR), alanine aminotransferase (ALT), aspartate aminotransferase (AST), and gama-glutamyltranspeptidase (gama-GT) that were investigated as potential covariates on PK parameters. eGFR was calculated according to the modified Schwarta formula ([Schwartz et al., 2009]). Mosteller formula was used to calculate the body surface area (BSA) as follows ([Yang et al., 2019]):
BSA(m^2)=[height(cm)×weight(kg)/3600]^1/2
During the forward selection step, the covariate causing the objective function value (OFV) decreased more than 3.84 (P < 0.05, χ2 distribution, df = 1), the covariate was included into the model, thereafter we tested the remaining covariates.
In this study, goodness-of-fit plots, bootstrap, visual predictive check (VPC), and normalized prediction distribution errors (NPDEs) were adopted to model validation. Bootstrap resampling 1,000 times in the modeling data, and the model was established with the sampling data set. We compared the similarity between bootstrap model parameters and the parameters in final model. VPC simulated 1,000 virtual data with the final model and analyze whether the 95% confidence interval (CI) of the simulated data contains the original data. NPDEs also adopted simulation technology and simulated 1,000 times based on the final model to investigated the distribution of the standard error and perform the normal distribution test.

[9] = Bayesian estimates, mean ± SD, all children, SD
[10] = patients with mild liver dysfunction (40 U/L < AST ⩽ 120 U/L)
[11] = patients with normal liver function

## CC[C@H](C)C[C@H](C)CCCCCCCCC(=O)N[C@H]1C[C@@H](O)[C@@H](NCCN)NC(=O)[C@@H]2[C@@H](O)CCN2C(=O)[C@H]([C@H](O)CCN)NC(=O)[C@H]([C@H](O)[C@@H](O)c2ccc(O)cc2)NC(=O)[C@@H]2C[C@@H](O)CN2C(=O)[C@H]([C@@H](C)O)NC1=O [caspofungin, Caspofungin]
C. parapsilosis [1]
  MIC90: 0.5 µg/mL (≈ 0.457 µM)
C. glabrata [2]
  MIC90: 0.06 µg/mL (≈ 0.0549 µM)
C. albicans [3]
  MIC90: 0.03 µg/mL (≈ 0.0274 µM)
[4]
  CL: 0.21 L/h/m^2
  central volume distribution: 2.23 L/m^2
C. parapsilosis [5]
  MIC: 0.5 µg/mL
[6]; 48 caspofungin recipients, standard-dose
  drug-related adverse events: we did not find drug-related adverse events
[6]; 48 children with allo-HSCT, loading dose 70 mg/m^2 followed by 50 mg/m^2
  patients with prophylaxis (favorable) outcome: 92%
C. glabrata [7]
  Fungicidal target AUC24/MIC ratio: 450
  Fungistatic target AUC24/MIC ratio: 96.2
C. albicans [8]
  Fungicidal target AUC24/MIC ratio: 865
  Fungistatic target AUC24/MIC ratio: 748
clinical; 1,000-run bootstrap
  θ1 Bootstrap analysis Median Estimate: 0.91
  θ2 Bootstrap analysis Median Estimate: −0.25
clinical; [9]
  BSA-normalized CL: 0.19 ± 0.04 L/m^2/h
  BSA-normalized Vd: 1.72 ± 0.01 L/m^2
clinical; adolescents, age 12–14 years, two severe liver dysfunction patients excluded
  BSA-normalized CL: 0.178 ± 0.039 L/m^2/h
clinical; children, age 2–11 years, two severe liver dysfunction patients excluded
  BSA-normalized CL: 0.187 ± 0.031 L/m^2/h
clinical; final PopPK model
  θ1 (exponent for BSA as covariate) Final model Estimate: 0.89
  θ2 (exponent for lnAST as covariate for CL) Final model Estimate: −0.23
clinical; 50 mg/m2, failed cases group, at the maintenance dose (50 mg/m^2), SD
  AUC(0-t): 248 ± 33.7 µg·h/mL
clinical; 50 mg/m2, successful cases group, at the maintenance dose (50 mg/m^2), SD
  AUC(0-t): 300 ± 88.3 µg·h/mL
clinical; 70 mg/m2, failed cases group, at the loading dose (70 mg/m^2), SD
  AUC(0-t): 352 ± 24.4 µg·h/mL
clinical; 70 mg/m2, successful cases group, at the loading dose (70 mg/m^2), SD
  AUC(0-t): 395 ± 91.1 µg·h/mL
clinical; [10]
  clearance: 1.95 mL/min
  estimated BSA-normalized CL: 0.179 ± 0.03 L/m^2/h
clinical; [11]
  clearance: 2.67 mL/min
  estimated BSA-normalized CL: 0.188 ± 0.03 L/m^2/h
clinical; infants, two severe liver dysfunction patients excluded
  BSA-normalized CL: 0.190 ± 0.015 L/m^2/h
clinical; one-compartment PopPK model, typical value, 48 children with allo-HSCT, Vd = 1.36 × (BSA/0.79)
  θVd (L) Final model Estimate: 1.36 L
clinical; one-compartment PopPK model, typical value, CL = 0.14 × (BSA/0.79)^0.89 × (lnAST/3.38)^−0.23
  θCL (L·h^−1) Final model Estimate: 0.14 L/h

From article PMC7061854, “Population Pharmacokinetics of Caspofungin and Dosing Optimization in Children With Allogeneic Hematopoietic Stem Cell Transplantation” (Frontiers in Pharmacology, 2020)
